Results as given in article PMC6044507 (ACS Omega, 2018).

Experiments:
[1] = molecular target: T1, human GPR84 (Homo sapiens, UniProt Q9NQS5); assay: cell-based; assay type: cell-based; details: for EC50: CHO cells expressing human GPR84; for EC50 / percent receptor activation at 10 μM, cAMP assay: forskolin 10 μM; for Emax: read-out: efficacy (Emax), cAMP assay; for percent receptor activation at 10 μM, cAMP assay: compound 10 μM
Target sequence in this assay (Q9NQS5 whole entry): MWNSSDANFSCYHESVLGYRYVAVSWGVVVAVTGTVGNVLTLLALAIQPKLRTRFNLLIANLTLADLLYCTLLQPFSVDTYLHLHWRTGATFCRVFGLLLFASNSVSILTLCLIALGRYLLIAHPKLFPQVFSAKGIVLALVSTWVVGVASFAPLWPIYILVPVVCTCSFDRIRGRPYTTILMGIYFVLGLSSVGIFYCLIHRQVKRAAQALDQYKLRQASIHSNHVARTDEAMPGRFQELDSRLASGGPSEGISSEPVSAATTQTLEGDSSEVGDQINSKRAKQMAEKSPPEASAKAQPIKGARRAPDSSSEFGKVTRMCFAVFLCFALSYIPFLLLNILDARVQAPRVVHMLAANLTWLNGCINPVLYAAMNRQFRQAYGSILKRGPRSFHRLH

[2] = molecular target: T1, human GPR84; assay: cell-based; details: EC50 ± SEM, β-arrestin assay, CHO cells expressing human GPR84
Target sequence in this assay (Q9NQS5 whole entry): as above
Target sequence in this assay (P32121 whole entry partner): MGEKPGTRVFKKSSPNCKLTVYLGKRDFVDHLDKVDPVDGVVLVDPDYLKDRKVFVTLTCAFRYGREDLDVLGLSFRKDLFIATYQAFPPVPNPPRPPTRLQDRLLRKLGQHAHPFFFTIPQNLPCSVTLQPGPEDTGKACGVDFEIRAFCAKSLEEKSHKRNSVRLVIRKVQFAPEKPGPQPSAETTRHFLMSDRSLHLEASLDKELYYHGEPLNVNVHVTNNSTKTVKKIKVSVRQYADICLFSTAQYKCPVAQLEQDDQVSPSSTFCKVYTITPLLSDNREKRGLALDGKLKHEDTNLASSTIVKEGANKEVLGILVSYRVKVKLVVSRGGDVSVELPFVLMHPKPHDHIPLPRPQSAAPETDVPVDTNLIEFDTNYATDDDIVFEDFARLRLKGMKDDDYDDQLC

[3] = metabolic stability in human liver microsomes; assay type: in vitro ADME; details: human microsomes, 30 min

Row | EC50 ([1]; EC50 ± SEM, cAMP assay) [nM] | Emax [1] [%] | percent receptor activation at 10 μM, cAMP assay [1] [%] | Compound | further results
1 | 44 ± 4 | 113 | – | O=c1cc(NCCc2ccc(Cl)cc2Cl)[nH]c(=O)[nH]1 [Compound 61, 6-(o,p-Dichlorophenethylamino)-2,4(1H,3H)-pyrimidinedione] | EC50 [2]: 82 ± 35 nM
2 | – | – | 19 | O=c1cc(NCCc2ccccc2Br)[nH]c(=O)[nH]1 [Compound 59] | –
3 | 79 ± 25 | 134 | – | Cc1cccc(CCNc2cc(=O)[nH]c(=O)[nH]2)c1 [Compound 52, 6-(m-Methylphenylethylamino)-2,4(1H,3H)-pyrimidinedione] | EC50 [2]: 780 ± 220 nM
4 | – | 117 | – | O=c1cc(N2CCN(c3ccc(Cl)cc3)CC2)[nH]c(=O)[nH]1 [Compound 68, 6-[4-(p-Chlorophenyl)-1-piperazinyl]-2,4(1H,3H)-pyrimidinedione] | EC50 [2]: 1800 ± 200 nM
5 | 130 ± 10 | 114 | – | O=c1cc(N2CCC(Cc3ccccc3)CC2)[nH]c(=O)[nH]1 [Compound 67, 6-(4-Benzylpiperidin-1yl)-2,4(1H,3H)-pyrimidinedione] | EC50 [2]: 600 ± 160 nM
6 | 100 ± 20 | 122 | – | O=c1cc(NCCc2ccccc2Cl)[nH]c(=O)[nH]1 [Compound 58, 6-(o-Chlorophenylethylamino)-2,4(1H,3H)-pyrimidinedione] | EC50 [2]: 1300 ± 100 nM
7 | 1700 ± 600 | 120 | – | O=c1cc(NCCCc2ccccc2)[nH]c(=O)[nH]1 [Compound 43, 6-(3-Phenylpropylamino)-2,4(1H,3H)-pyrimidinedione] | –
8 | 13 ± 1 | 114 | – | Cc1ccc(CCNc2cc(=O)[nH]c(=O)[nH]2)cc1 [Compound 45, 6-(p-Methylphenylethylamino)-2,4(1H,3H)-pyrimidinedione] | EC50 [2]: 320 ± 150 nM
9 | – | – | 7 | COc1ccccc1N1CCN(CCCNc2cc(=O)n(C)c(=O)n2C)CC1 [urapidil, reference compound] | –
10 | – | 112 | – | O=c1cc(NCCc2cccs2)[nH]c(=O)[nH]1 [Compound 63, 6-(Thiophen-2-yl)ethylamino-2,4(1H,3H)-pyrimidinedione] | –
11 | 38 ± 7 | 53 | – | COc1ccccc1N1CCN(c2cc(=O)[nH]c(=O)[nH]2)CC1 [Compound 69] | –
12 | 73 ± 5 | 107 | – | O=c1cc(NCCCOc2ccccc2)[nH]c(=O)[nH]1 [Compound 65, 6-(3-Phenoxypropylamino)-2,4(1H,3H)-pyrimidinedione] | –
13 | 150 ± 40 | 137 | – | O=c1cc(N2CCN(Cc3cccc4ccccc34)CC2)[nH]c(=O)[nH]1 [Compound 71, 6-[4-(1-Naphthylmethyl)-1-piperazinyl]-2,4(1H,3H)-pyrimidinedione] | –
14 | – | – | 15 | O=c1[nH]c(NCCCc2ccccc2)c(Br)c(=O)[nH]1 [Compound 75] | –
15 | – | 136 | – | O=c1cc(NCCc2cccc(F)c2)[nH]c(=O)[nH]1 [Compound 53, 6-(m-Fluorophenylethylamino)-2,4(1H,3H)-pyrimidinedione] | –
16 | – | – | 12 | O=c1cc(NCc2ccccc2)[nH]c(=O)[nH]1 [Compound 40] | agonistic activity at GPR84 in cAMP assay, in words [1]: inactive
17 | 57 ± 21 | 111 | – | COc1ccc(CCNc2cc(=O)[nH]c(=O)[nH]2)cc1 [Compound 50, 6-(p-Methoxyphenylethylamino)-2,4(1H,3H)-pyrimidinedione] | EC50 [2]: 760 ± 370 nM
18 | – | 114 | – | O=c1[nH]c(NCCc2ccc(Br)cc2)c(Br)c(=O)[nH]1 [Compound 74, 5-Bromo-6-(p-bromophenylethylamino)-2,4(1H,3H)-pyrimidinedione] | EC50 [2]: 6700 ± 1800 nM
19 | 64 ± 5 | 147 | – | O=c1cc(NCCc2cccc(Br)c2)[nH]c(=O)[nH]1 [Compound 55, 6-(m-Bromophenylethylamino)-2,4(1H,3H)-pyrimidinedione] | EC50 [2]: 190 ± 30 nM
20 | – | – | 23 | O=c1cc(NCc2cccc3ccccc23)[nH]c(=O)[nH]1 [Compound 41] | agonistic activity at GPR84 in cAMP assay, in words [1]: inactive
21 | 130 ± 10 | 125 | – | O=c1cc(NCCc2cccc(Cl)c2)[nH]c(=O)[nH]1 [Compound 54, 6-(m-Chlorophenylethylamino)-2,4(1H,3H)-pyrimidinedione] | EC50 [2]: 300 ± 100 nM
22 | – | – | 32 | O=Nc1c(NCCc2ccccc2)[nH]c(=O)[nH]c1=O [Compound 79] | –
23 | – | – | 13 | O=c1cc(N2CCC(c3ccccc3)CC2)[nH]c(=O)[nH]1 [Compound 66] | agonistic activity at GPR84 in cAMP assay, in words [1]: inactive
24 | 100 ± 50 | 113 | – | O=c1cc(NCCOc2ccccc2)[nH]c(=O)[nH]1 [Compound 64, 6-(2-Phenoxyethylamino)-2,4(1H,3H)-pyrimidinedione] | EC50 [2]: 730 ± 130 nM
25 | 65 ± 14 | 111 | – | O=c1cc(NCCc2ccc(F)cc2)[nH]c(=O)[nH]1 [Compound 46, 6-(p-Fluorophenylethylamino)-2,4(1H,3H)-pyrimidinedione] | EC50 [2]: 2000 ± 800 nM
26 | 3200 ± 100 | 96 | – | Cc1ccccc1CCNc1cc(=O)[nH]c(=O)[nH]1 [Compound 56, 6-(o-Methylphenylethylamino)-2,4(1H,3H)-pyrimidinedione] | –
27 | – | – | −9 | CCCNc1cc(=O)[nH]c(=O)[nH]1 [Compound 14] | agonistic activity at GPR84 in cAMP assay, in words [1]: inactive

Further lines, the compound ahead of its results:

Row | Compound | EC50 ([1]; EC50 ± SEM, cAMP assay) [nM] | Emax [1] [%] | percent receptor activation at 10 μM, cAMP assay [1] [%] | further results
28 | CCCCCCSc1nc(O)cc(O)n1 [2-hexylthiopyrimidine-4,6-diol (5), 2-hexylthiopyrimidine-4,6-diol, reference compound] | – | – | – | drug disappeared after 30 min of incubation [3]: ~40%
29 | CSCCCNc1cc(=O)[nH]c(=O)[nH]1 [Compound 26, N^6-Methylthiopropyluracil] | 23000 ± 3000 | 100 | – | –
30 | CCCCC(CC)CNc1cc(=O)[nH]c(=O)[nH]1 (racemic) [Compound 24, N^6-(R,S)-(2-ethyl)hexyluracil] | – | – | 14 | agonistic activity at GPR84 in cAMP assay, in words [1]: abolished activity
31 | CC(C)CCCCCNc1cc(=O)[nH]c(=O)[nH]1 [Compound 25] | 5900 ± 2600 | 99 | – | –
32 | O=C(O)CCCCCNc1cc(=O)[nH]c(=O)[nH]1 [Compound 29] | – | – | 25 | –
33 | CCCCCCCCNc1c[nH]c(=O)[nH]c1=O [Compound 39] | – | – | 6 | agonistic activity at GPR84 in cAMP assay, in words [1]: completely inactive
34 | CCCCCCCCNc1cc(=O)n(C)c(=O)n1C [Compound 36] | – | – | 25 | agonistic activity at GPR84 in cAMP assay, in words [1]: virtually abolished potency
35 | CCCCCCCCCCNc1cc(=O)[nH]c(=O)[nH]1 [Compound 23, 6-Decylamino-2,4(1H,3H)-pyrimidinedione] | – | 109 | – | –
36 | O=c1cc(NCCCCCCCO)[nH]c(=O)[nH]1 [Compound 28, 6-(7-Hydroxyheptylamino)-2,4(1H,3H)-pyrimidinedione] | – | 105 | – | EC50 ([1]; EC50, cAMP assay): 1980 nM; EC50 [2]: 2100 ± 600 nM
37 | Oc1cc(NCCCCc2ccccc2)nc(O)n1 [Compound 44, 6-(4-Phenylbutylamino)-2,4(1H,3H)-pyrimidinedione] | 24 ± 10 | 108 | – | –
38 | CCCCCCCCCNc1cc(=O)n(C)c(=O)[nH]1 [Compound 32, 6-Nonylamino-3-methyl-2,4(1H,3H)-pyrimidinedione] | 2000 ± 500 | 74 | – | –
39 | CCCCCCNc1cc(=O)[nH]c(=O)n1C [Compound 34] | – | – | 32 | –
40 | CCCCCCNc1[nH]c(=O)[nH]c(=O)c1N=O [Compound 76] | 7700 ± 500 | 120 | – | –
41 | O=c1cc(NCCCCCCO)[nH]c(=O)[nH]1 [Compound 27] | – | – | 51 ± 8 | –
42 | CC(C)CNc1cc(=O)[nH]c(=O)[nH]1 [Compound 15] | – | – | 11 | –
43 | CCNc1cc(=O)[nH]c(=O)[nH]1 [Compound 13] | – | – | 15 | agonistic activity at GPR84 in cAMP assay, in words [1]: inactive
44 | CC(C)CCNc1cc(=O)[nH]c(=O)[nH]1 [Compound 17] | – | – | 14 | –
45 | CC(C)(C)CNc1cc(=O)[nH]c(=O)[nH]1 [Compound 16] | – | – | 4 | –
46 | CCCCCCNc1[nH]c(=O)[nH]c(=O)c1Br [Compound 72] | 7400 ± 1600 | 123 | – | –
47 | CC(C)(C)CCNc1cc(=O)[nH]c(=O)[nH]1 [Compound 18] | – | – | 18 | –
48 | CCCCCCCCNc1[nH]c(=O)[nH]c(=O)c1Br [Compound 73, 5-Bromo-6-octylamino-2,4(1H,3H)-pyrimidinedione] | 2000 ± 600 | 114 | – | –
49 | CCCCCCCNc1[nH]c(=O)[nH]c(=O)c1N=O [Compound 77, 6-Heptylamino-5-nitroso-2,4(1H,3H)-pyrimidinedione] | 500 ± 50 | 104 | – | –
50 | CCCCCCCCN(C)c1cc(=O)[nH]c(=O)[nH]1 [Compound 38, 6-(N-Methyloctylamino)-2,4(1H,3H)-pyrimidinedione] | – | 107 | – | EC50 [2]: 640 ± 20 nM
51 | CCCCCCCNc1cc(=O)[nH]c(=O)[nH]1 [Compound 21, 6-Heptylamino-2,4(1H,3H)-pyrimidinedione] | 12 ± 6 | 113 | – | –
52 | CCCCCCN(C)c1cc(=O)[nH]c(=O)[nH]1 [Compound 37, 6-(N-Methylhexylamino)-2,4(1H,3H)-pyrimidinedione] | 110 ± 40 | 106 | – | –
53 | CCCCCNc1cc(=O)[nH]c(=O)[nH]1 [Compound 19, 6-Pentylamino-2,4(1H,3H)-pyrimidinedione] | 460 ± 130 | 106 | – | EC50 [2]: 4800 ± 1300 nM
54 | CCCCCCCCNc1cc(=O)[nH]c(=O)n1C [Compound 35] | – | – | 34 | –
55 | O=C(O)CCCCCCCNc1cc(=O)[nH]c(=O)[nH]1 [Compound 30] | – | – | 13 | –
